Reference: the supplement of paper PMC5579334
± gives the standard deviation of the averaged measurements.

Tests used:
[1] = system: STS26T; assay: drug sensitivity score (DSS, CellTox-Green cytotoxicity, 72 h) (DSS (dimensionless)); higher = more cytotoxic; extreme values may be limits of the assay
Outline: (§1)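 MPNST cell lines and primary human Schwann cells were grown for 72 h at 37 °C in 384-well plates containing five 10-fold compound dilutions. CellTox-Green, added before seeding at a final 1:1000 dilution, gave fluorescence from DNA released by disrupted cells, and signals were scaled to vehicle and positive-control wells. Curves were fitted with a four-parameter logistic model. Drug sensitivity score and relative IC50 come from these fits, with IC50 censored at the top concentration.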

[2] = system: HS-PSS; assay: as above
Outline: as §1

[3] = system: ST8814; assay: as above
Outline: as §1

[4] = system: S1507-2; assay: as above
Outline: as §1

[5] = system: HSC2 (primary human Schwann cells); assay: as above
Outline: as §1

[6] = system: HSC1 (primary human Schwann cells); assay: as above
Outline: as §1

[7] = system: YST-1; assay: drug sensitivity score (DSS, CellTiter-Glo viability, 72 h) (DSS (dimensionless)); higher = more sensitive; extreme values may be limits of the assay
Outline: (§2)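 Viability of MPNST cell lines and primary human Schwann cells was read as CellTiter-Glo ATP luminescence after 72 h at 37 °C, 5% CO2, in 384-well plates seeded with 750–1000 cells per well. Each compound had been preprinted at five concentrations in 10-fold steps. Signals were scaled between vehicle and positive-control wells, duplicates averaged where present, and fitted with four-parameter logistic curves. Drug sensitivity score and relative IC50 (censored at the top concentration) come from those fits, and percent inhibition is taken at the top concentration.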

[8] = system: STS26T; assay: as above
Outline: as §2

[9] = system: HS-Sch-2; assay: as above
Outline: as §2

[10] = system: HS-PSS; assay: as above
Outline: as §2

[11] = system: ST8814; assay: as above
Outline: as §2

[12] = system: S462; assay: as above
Outline: as §2

[13] = system: S1507-2; assay: as above
Outline: as §2

[14] = system: HSC2 (primary human Schwann cells); assay: as above
Outline: as §2

[15] = system: HSC1 (primary human Schwann cells); assay: as above
Outline: as §2

[16] = system: YST-1; assay: % inhibition of CellTiter-Glo viability at highest tested concentration (72 h), relative to DMSO and benzethonium chloride controls; higher = more inhibition
Outline: as §2

[17] = system: STS26T; assay: as above
Outline: as §2

[18] = system: HS-Sch-2; assay: as above
Outline: as §2

[19] = system: HS-PSS; assay: as above
Outline: as §2

[20] = system: ST8814; assay: as above
Outline: as §2

[21] = system: S462; assay: as above
Outline: as §2

[22] = system: S1507-2; assay: as above
Outline: as §2

[23] = system: HSC2 (primary human Schwann cells); assay: as above
Outline: as §2

[24] = system: HSC1 (primary human Schwann cells); assay: as above
Outline: as §2

| Structure (SMILES) | drug sensitivity score [1] | drug sensitivity score [2] | drug sensitivity score [3] | drug sensitivity score [4] | drug sensitivity score [5] | drug sensitivity score [6] | drug sensitivity score [7] | drug sensitivity score [8] | drug sensitivity score [9] | drug sensitivity score [10] | drug sensitivity score [11] | drug sensitivity score [12] | drug sensitivity score [13] | drug sensitivity score [14] | drug sensitivity score [15] | % inhibition [16] [%] | % inhibition [17] [%] | % inhibition [18] [%] | % inhibition [19] [%] | % inhibition [20] [%] | % inhibition [21] [%] | % inhibition [22] [%] | % inhibition [23] [%] | % inhibition [24] [%] |
| --- | --- | --- | --- | --- | --- | --- | --- | --- | --- | --- | --- | --- | --- | --- | --- | --- | --- | --- | --- | --- | --- | --- | --- | --- |
| C=CCn1c(=O)c2cnc(Nc3ccc(N4CCN(C)CC4)cc3)nc2n1-c1cccc(C(C)(C)O)n1 [MK1775] (max concentration tested 10000 nM) | 20.3 | 0.11 | 14.6 | 16.1 ± 1.9 | 9.17 | 5.21 | 14.7 | 16.4 | 23.8 | 6.59 | 15.8 | 24.5 ± 0.65 | 16.3 ± 1.6 | 17 | 14.4 | 82.5 | 96.8 | 88.4 | 49.6 | 89.8 | 107.2 ± 0.38 | 83.3 ± 2 | 85.9 | 67.6 |
| COc1cc2c(cc1O)CC[C@@H]1[C@@H]2CC[C@]2(C)[C@@H](O)CC[C@@H]12 [2-methoxyestradiol] (max concentration tested 10000 nM) | 11.6 | 0 | 5.07 | 5.59 ± 1 | 3.98 | 0.832 | 6.88 | 12.1 | 10.8 | 1.11 | 6.11 | 12.8 ± 0.78 | 6.89 ± 0.4 | 7.04 | 7.26 | 75.8 | 99.8 | 84.4 | 26.6 | 91.9 | 98.15 ± 0.87 | 82 ± 3.8 | 66.6 | 66.2 |
| C=CC[C@@H]1/C=C(\C)C[C@H](C)C[C@H](OC)[C@H]2O[C@@](O)(C(=O)C(=O)N3CCCC[C@H]3C(=O)O[C@H](/C(C)=C/[C@@H]3CC[C@@H](O)[C@H](OC)C3)[C@H](C)[C@@H](O)CC1=O)[C@H](C)C[C@@H]2OC [Tacrolimus] (max concentration tested 10000 nM) | 0 | 0 | 0 | 0 | 0 | 0 | 0 | 0 | 0 | 0 | 0.177 | 0 | 0.168 ± 0.24 | 0 | 0.469 | 7.06 | 8.77 | -0.54 | 8.62 | 13.4 | 1.38 ± 2.8 | 6.29 ± 12 | 5.26 | 19.9 |
| CCc1cncnc1N1CCN(Cc2nc3ccc(C(F)(F)F)cc3[nH]2)CC1 (max concentration tested 10000 nM) | 0 | 0 | 0 | 0 | 0 | 0 | 0.69 | 1.12 | 2.07 | 4.22 | 0.171 | 0.305 ± 0.43 | 0.267 ± 0.38 | 0.531 | 0.31 | 22.3 | 19.7 | 47.6 | 64 | 13.6 | 13.2 ± 8.4 | 9.77 ± 2.6 | 21.4 | 13.9 |
| NC(=O)Nc1cc(-c2cccc(F)c2)sc1C(=O)N[C@H]1CCCNC1 [AZD7762] (max concentration tested 1000 nM) | 9.01 | 0.32 | 5.42 | 3.7 ± 0.91 | 5.55 | 3.66 | 4.02 | 9.05 | 12.7 | 4.8 | 8.3 | 14.7 ± 0.2 | 10.9 ± 0.13 | 3.95 | 6.7 | 71.9 | 90.7 | 90.7 | 61.9 | 86.2 | 98.22 ± 0.35 | 80.47 ± 0.4 | 70.2 | 72.8 |
| CC[C@@H]1C(=O)N(C)c2cnc(Nc3ccc(C(=O)NC4CCN(C)CC4)cc3OC)nc2N1C1CCCC1 [BI 2536] (max concentration tested 1000 nM) | 32.3 | 0.25 | 19.5 | 15.6 ± 0.4 | 20.1 | 11.3 | 20.5 | 29.6 | 24.5 | 15 | 22.1 | 28.42 ± 0.2 | 19.5 ± 0.21 | 17.4 | 13.3 | 54.1 | 75.9 | 66.8 | 61 | 84.1 | 101.6 ± 0.24 | 86.7 ± 3 | 79.4 | 62.9 |
